Test [1] concerns IRF pathway in THP1-Dual STING reporter cells. Description: STING THP1 Reporter Assay, IRF pathway (secreted Lucia luciferase). In kind it is cell-based, human. As to conditions: 100% = 100 μM cGAMP. The source says: (§1) THP1-Dual™ cells were derived from the human THP-1 monocyte cell line by stable integration of two inducible reporter constructs. To this end, THP1-Dual™ cells allow the simultaneous study of the NF-κB pathway, by monitoring the activity of SEAP, and the IRF pathway by assessing the activity of a secreted luciferase (Lucia). Both reporter proteins are readily measurable in the cell culture supernatant when using QUANTI-Blue™, a SEAP detection reagent, and QUANTI-Luc™, a luciferase detection reagent.
(§2) THP1-Dual™ cells induce the activation of NF-κB in response to STING agonists. They also trigger the IRF pathway upon stimulation with STING agonists, such as cGAMP. Here, the THP-1-Dual cells were used to assess STING binders for function on the cellular level.
(§3) Serial dilutions of compounds in DMSO were added to low volume 384 well plates at 100 nl/well using an ECHO acoustic dispenser (Labcyte, model 550) to achieve final starting concentration of 100 μM in cell suspension. […] One column of the plate was reserved for treatment with cGAMP at 100 μM for 100% activation calculation and one column for no treatment (DMSO only) for baseline activation. Plates were then incubated in 37° C. incubator at 5% CO2 for 20 hours.
(§4) In the SEAP assay, 5 μl of 2× QuantiBlue (Invivogen, cat #Rep-qb2) is added to 384 well black plates seeded with THP1 cells and incubated at 37° C. for 2 hours. Plates were read on the Envision (Perkin Elmer) at 620 nm wavelength (OD620). In the luciferase assay, 5 μl of Quantiluc (Invivogen, Rep-qlc2) is added to white 384 well plates seeded with THP1 cells and read at 5 minutes on the Envision (Perkin Elmer) using a luminescence protocol (RLU). For both cell lines, 100% activation was determined by value (RLU) of THP-1 Dual STING cells stimulated with 100 μM cGAMP (Invivogen, cat #TLRL-NACGA23-5).

The target of test [2] is T1, STING WT: His-TVMV-S-hSTING(155-341)-H232R (Homo sapiens, UniProt Q86WV6, H232R).
T1 construct: STING WT: His-TVMV-S-hSTING(155-341)-H232R
Put plainly: STING HTRF Binding Assay, STING WT. Particulars: 20 nM His-tagged STING cytoplasmic domain, 200 nM fluorescein-labeled cGAMP analog probe, one hour; read-out: HTRF Binding Assays IC50 (μM) STING WT. Here is the method: (§5) A time resolved FRET-based competition binding assay was used to assess test article binding to STING WT and STING AQ. His-tagged STING cytoplasmic domain (WT or AQ) at a concentration of 20 nM was incubated with 2.5 nM Tb-labeled anti-His antibody, test compound, and fluorescein-labeled cGAMP analog probe (BioLog cat. no. C195) at a concentration of 200 nM (STING WT) or 40 nM (STING AQ) in PBS containing 0.005% Tween-20 and 0.1% BSA for one hour. Fluorescence at 495 nm and 520 nm was measured using an EnVision microplate reader to quantify FRET between Tb-labeled anti-His antibody and fluorescein-labeled probe. Background was defined as the signal obtained in the absence of STING protein, and background subtracted FRET ratios were normalized to the maximum signal obtained in the absence of test compound. These values were converted to a percent inhibition. Percent inhibition was determined for test compounds at 11 concentrations. The IC50, defined as the concentration of competing test compound needed to reduce specific binding of the probe by 50%, was calculated using the 4 parameter logistic equation to fit the data

Test [3] concerns NF-κB pathway in THP1-Dual STING reporter cells. Description: STING THP1 Reporter Assay, NF-κB pathway (SEAP). In kind it is cell-based, human. As to conditions: 100% = 100 μM cGAMP.
Excerpt: as §1, §2, §3, §4

Test [4] addresses T2, STING AQ: His-TVMV-S-hSTING(155-341)-G230A-R293Q (Homo sapiens, UniProt Q86WV6, G230A/H232R/R293Q).
T2 construct: STING AQ: His-TVMV-S-hSTING(155-341)-G230A-R293Q
Description: STING HTRF Binding Assay, STING AQ. As to conditions: 20 nM His-tagged STING cytoplasmic domain, 40 nM fluorescein-labeled cGAMP analog probe, one hour; read-out: HTRF Binding Assays IC50 (μM) STING AQ. Here is the method: as §5

The mark [5] stands for this setting: read-out: THP1 Reporter Assays EC50 (μM) IRF3, THP1-Dual cells, 10% human plasma, 20 hours, luciferase.
Setting [6] is: THP1-Dual cells, 10% human plasma, 20 hours, SEAP, read-out: THP1 Reporter Assays EC50 (μM) NFkB.
Setting [7] is: THP1-Dual cells, 10% human plasma, 20 hours, luciferase, read-out: THP1 Reporter Assays EC50 (μM) IRF3.
Where [8] appears, read: Homo sapiens, THP1-Dual, 20 h, THP1-Dual cells, 10% human plasma, 20 hours, luciferase, read-out: THP1 Reporter Assays EC50 (μM) IRF3.
Setting [9] is: Homo sapiens, THP1-Dual, 20 h, THP1-Dual cells, 10% human plasma, 20 hours, SEAP, read-out: THP1 Reporter Assays EC50 (μM) NFkB.
Where [10] appears, read: Homo sapiens, THP1-Dual, 20 h, read-out: THP1 Reporter Assays EC50 (μM) IRF3, THP1-Dual cells, 10% human plasma, 20 hours, luciferase.
[11] abbreviates: Homo sapiens, THP1-Dual, 20 h, read-out: THP1 Reporter Assays EC50 (μM) NFkB, THP1-Dual cells, 10% human plasma, 20 hours, SEAP.
Where [12] appears, read: read-out: THP1 Reporter Assays EC50 (μM) NFkB, THP1-Dual cells, 10% human plasma, 20 hours, SEAP.

Where two headings read alike, the source gives them in different places.

T1 sequence (Q86WV6 with tags, fused parts or gaps H232R): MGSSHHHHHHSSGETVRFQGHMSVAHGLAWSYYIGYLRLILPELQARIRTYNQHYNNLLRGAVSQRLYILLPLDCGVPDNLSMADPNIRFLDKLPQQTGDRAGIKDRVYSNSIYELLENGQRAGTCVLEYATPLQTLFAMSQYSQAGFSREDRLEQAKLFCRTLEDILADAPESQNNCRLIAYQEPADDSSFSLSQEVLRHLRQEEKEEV
T2 sequence (Q86WV6 with tags, fused parts or gaps G230A/H232R/R293Q): as the sequence (Q86WV6 with tags, fused parts or gaps H232R) above, with G99A, R162Q counted along it

With `Nc1ncnc2c1ncn2[C@@H]1O[C@@H]2COP(=O)(S)O[C@H]3[C@@H](F)[C@H](n4cnc5c4ncn4ncnc54)O[C@@H]3COP(=O)(S)O[C@H]2[C@H]1F` (single isomer, unassigned) [Example 12-3], the EC50 in test [1] (setting [5]) is 0.27 µM; in test [3] (setting [6]) it was 2.65 µM. For the same molecule, the IC50 in test [2] came out at 0.02 µM; in test [4], 0.003 µM.
With `NC(=O)c1cc([C@@H]2O[C@@H]3COP(=O)(S)O[C@H]4[C@@H](F)[C@H](n5cnc6c(N)ncnc65)O[C@@H]4COP(=O)(S)O[C@H]3[C@H]2O)[nH]n1` (single isomer, unassigned) [Example 6-2], the concentration for a half-maximal effect (EC50) in test [1] (setting [7]) and in test [3] (setting [6]) was over 100 µM in each case. Further, the IC50 in test [2] stood at 88.6 µM; in test [4] it was 5.75 µM.
`Nc1ncnc2c1ncn2[C@@H]1O[C@@H]2COP(=O)(S)O[C@H]3[C@@H](O)[C@H](n4cnc5c(=O)n6ccnc6[nH]c54)O[C@@H]3COP(=O)(S)O[C@H]2[C@H]1F` (single isomer, unassigned) [Example 1-1]: the EC50 in test [1] (setting [7]) was determined as 0.38 µM; in test [3] (setting [6]), 0.94 µM. The IC50 in test [2] is 0.02 µM; in test [4], 0.01 µM.
On to `NC(=O)c1cccc2c1nnn2[C@@H]1O[C@@H]2COP(=O)(S)O[C@H]3[C@@H](F)[C@H](n4cnc5c(N)ncnc54)O[C@@H]3COP(=O)(S)O[C@H]2[C@H]1F` (single isomer, unassigned) [Example 4-2], for which the EC50 in test [1] (setting [8]) and in test [3] (setting [9]) was over 100 µM each time. Besides, the IC50 in test [2] amounted to 8.1 µM; in test [4] it was 0.24 µM.
Consider `Nc1ncnc2c1ncn2[C@@H]1O[C@@H]2COP(=O)(S)O[C@H]3[C@@H](O)[C@H](n4cnc5c(=O)[nH]c6nccn6c54)O[C@@H]3COP(=O)(S)O[C@H]2[C@H]1F` (mixture of isomers) [Example 5, (1S,6R,8R,9R,10R,15R,17R,18R)-8-(6-amino-9H-purin-9-yl)-9-fluoro-18-hydroxy-17-{4-oxo-1H,4H,5H-imidazo[2,1-b]purin-1-yl}-3,12-disulfanyl-2,4,7,11,13,16-hexaoxa-3λ^5,12λ^5-diphosphatricyclo[13.3.0.0^6,10]octadecane-3,12-dione], for which the values for the EC50 in test [1] (setting [10]) and in test [3] (setting [11]) were 0.49 µM and 1.35 µM, respectively. For the same molecule, the half-maximal inhibitory concentration (IC50) worked out at 0.004 µM in test [2] and 0.001 µM in test [4].
As for `NC(=O)c1cccc2c1nnn2[C@@H]1O[C@@H]2COP(=O)(S)O[C@H]3[C@@H](F)[C@H](n4cnc5c(N)ncnc54)O[C@@H]3COP(=O)(S)O[C@H]2[C@H]1F` (single isomer, unassigned) [Example 4-4], the 50% effective concentration (EC50) was 81.1 µM in test [1] (setting [7]) and 92.4 µM in test [3] (setting [6]). The figures for the IC50 in test [2] and in test [4] were 0.78 µM and 0.02 µM, respectively.
With `NC(=O)c1cccc2c1nnn2[C@@H]1O[C@@H]2COP(=O)(O)O[C@H]3[C@@H](F)[C@H](n4cnc5c(N)ncnc54)O[C@@H]3COP(=O)(S)O[C@H]2[C@H]1F` (single isomer, unassigned) [Example 8-1], the 50% effective concentration (EC50) in test [1] (setting [8]) and in test [3] (setting [9]) was over 100 µM each time. Further, the 50% inhibitory concentration (IC50) in test [2] amounted to 64.6 µM; in test [4] it was 1.75 µM.
Regarding `NC(=O)c1cc([C@@H]2O[C@@H]3COP(=O)(O)O[C@H]4[C@@H](F)[C@H](n5cnc6c(N)ncnc65)O[C@@H]4COP(=O)(S)O[C@H]3[C@H]2O)ccn1` (stereo partly drawn) [Example 14, 4-[(1R,6R,8S,9S,10S,15R,17R,18R)-17-(6-amino-9H-purin-9-yl)-18-fluoro-3,9-dihydroxy-3,12-dioxo-12-sulfanyl-2,4,7,11,13,16-hexaoxa-3λ^5,12λ^5-diphosphatricyclo[13.3.0.0^6,10]octadecan-8-yl]pyridine-2-carboxamide], the concentration giving a half-maximal response (EC50) in test [1] (setting [8]) and in test [3] (setting [9]) was over 100 µM throughout. For the same molecule, the results for the IC50 in test [2] and in test [4] were over 100 µM and 1.14 µM, respectively.
Consider `NC(=O)c1cccc2c1nnn2[C@@H]1O[C@@H]2COP(=O)(S)O[C@H]3[C@@H](F)[C@H](n4cnc5c(N)ncnc54)O[C@@H]3COP(=O)(S)O[C@H]2[C@H]1F` (single isomer, unassigned) [Example 4-3], for which the EC50 in test [1] (setting [7]) and in test [3] (setting [6]) was over 100 µM throughout. Moreover, the half-maximal inhibitory concentration (IC50) is 12 µM in test [2] and 0.39 µM in test [4].
In the case of `NC(=O)c1cc([C@@H]2O[C@@H]3COP(=O)(S)O[C@H]4[C@@H](F)[C@H](n5cnc6c(N)ncnc65)O[C@@H]4COP(=O)(S)O[C@H]3[C@H]2O)[nH]n1` (single isomer, unassigned) [Example 6-3], the half-maximal effective concentration (EC50) in test [1] (setting [7]) and in test [3] (setting [6]) was over 100 µM in each case. The results for the concentration for half-maximal inhibition (IC50) in test [2] and in test [4] were over 100 µM and 16.2 µM, respectively.
With `Nc1ncnc2c1ncn2[C@@H]1O[C@@H]2COP(=O)(S)O[C@H]3[C@@H](F)[C@H](n4cnc5c4ncn4ncnc54)O[C@@H]3COP(=O)(S)O[C@H]2[C@H]1F` (single isomer, unassigned) [Example 12-2], the results for the EC50 in test [1] (setting [5]) and in test [3] (setting [6]) were 0.2 µM and 2.64 µM, respectively. The concentration for half-maximal inhibition (IC50) in test [2] was 0.01 µM; in test [4], 0.002 µM.
For the molecule `Nc1ncnc2c1ncn2[C@@H]1O[C@@H]2COP(=O)(S)O[C@H]3[C@@H](O)[C@H](n4cnc5c4ncn4ncnc54)O[C@@H]3COP(=O)(O)O[C@H]2[C@H]1F` (single isomer, unassigned) [Example 10-2], the results for the EC50 in test [1] (setting [5]) and in test [3] (setting [12]) were 3.69 µM and 8.99 µM, respectively. The IC50 in test [2] came out at 0.05 µM.
For the molecule `Nc1ncnc2c1ncn2[C@@H]1O[C@@H]2COP(=O)(S)O[C@H]3[C@@H](F)[C@H](n4cnc5c4ncn4ccnc54)O[C@@H]3COP(=O)(S)O[C@H]2[C@H]1F` (single isomer, unassigned) [Example 21-3], the half-maximal effective concentration (EC50) turned out to be 0.14 µM in test [1] (setting [5]) and 0.53 µM in test [3] (setting [12]). Further, the half-maximal inhibitory concentration (IC50) in test [2] was found to be 0.02 µM; in test [4], 0.01 µM.
Regarding `Nc1ncnc2c1ncn2[C@@H]1O[C@@H]2COP(=O)(O)O[C@H]3[C@@H](O)[C@H](n4cnc5c4ncn4ncnc54)O[C@@H]3COP(=O)(O)O[C@H]2[C@H]1F` [Example 11, (1S,6R,8R,9R,10R,15R,17R,18R)-8-(6-amino-9H-purin-9-yl)-9-fluoro-3,12,18-trihydroxy-17-{3H-[1,2,4]triazolo[3,2-f]purin-3-yl}-2,4,7,11,13,16-hexaoxa-3λ^5,12λ^5-diphosphatricyclo[13.3.0.0^6,10]octadecane-3,12-dione], the values for the half-maximal effective concentration (EC50) in test [1] (setting [10]) and in test [3] (setting [11]) were 8.35 µM and 16 µM, respectively. In addition, the IC50 in test [2] is 0.23 µM.

For the origin of these results see US11660311B2, “Cyclic dinucleotides as anticancer agents” (priority 2017, dated 2023).
